Measurements taken from patent US9133191B2, “Substituted triazine derivatives and use thereof as stimulators of soluble guanylate cyclase” (Bayer Intellectual Property GmbH, priority 2012, dated 2015).

Key:
[1] = tested on: recombinant guanylate cyclase reporter cell line; test: Effect on a recombinant guanylate cyclase reporter cell line; assay type: cell-based; details: read-out: MEC (minimum effective concentration)
Protocol: B-2. Effect on a Recombinant Guanylate Cyclase Reporter Cell Line
The cellular effect of the compounds according to the invention is determined using a recombinant guanylate cyclase reporter cell line, as described in F. Wunder et al., Anal. Biochem. 339, 104-112 (2005).

aorta rings = test: Vasorelaxant effect in vitro (phenylephrine-contracted rabbit aorta rings); set-up: species or system Rabbits; details: Oryctolagus cuniculus, phenylephrine contraction, concentration needed to reduce the control value by 50%
Protocol: B-1. Vasorelaxant Effect In Vitro
Rabbits are stunned by a blow to the neck and exsanguinated. The aorta is removed, freed from adhering tissue and divided into rings of a width of 1.5 mm. The rings are placed individually under an initial tension in 5 ml organ baths with Krebs-Henseleit solution which is at 37° C., is gassed with carbogen and has the following composition (in each case mM): sodium chloride: 119; potassium chloride: 4.8; calcium chloride dihydrate: 1; magnesium sulphate heptahydrate: 1.4; potassium dihydrogenphosphate: 1.2; sodium bicarbonate: 25; glucose: 10. The contractile force is determined with Statham UC2 cells, amplified and digitalized using A/D transducers (DAS-1802 HC, Keithley Instruments Munich), and recorded in parallel on linear recorders. To produce a contraction, phenylephrine is added to the bath cumulatively in increasing concentration. After several control cycles, the substance to be investigated is added in each further run in increasing dosage in each case, and the height of the contraction achieved is compared with the height of the contraction reached in the last preceding run. This is used to calculate the concentration needed to reduce the magnitude of the control value by 50% (IC50 value). The standard administration volume is 5 μl; the DMSO content in the bath solution corresponds to 0.1%.

SMILES | minimal effective concentration [1] | IC50 (aorta rings)
Nc1nc(-c2nn(Cc3ccccc3F)c3ncccc23)nnc1-c1cncc(F)c1 [Example 1, 3-[1-(2-Fluorobenzyl)-1H-pyrazolo[3,4-b]pyridin-3-yl]-6-(5-fluoropyridin-3-yl)-1,2,4-triazine-5-amine] | 0.1 µM | 
Cc1ncccc1-c1nnc(-c2nn(Cc3ccccc3F)c3ncccc23)nc1N [Example 2, 3-[1-(2-Fluorobenzyl)-1H-pyrazolo[3,4-b]pyridin-3-yl]-6-(2-methylpyridin-3-yl)-1,2,4-triazine-5-amine] | 0.1 µM | 
Cc1noc(C)c1-c1nnc(-c2nn(Cc3ccccc3F)c3ncccc23)nc1N [Example 3, 6-(3,5-Dimethyl-1,2-oxazol-4-yl)-3-[1-(2-fluorobenzyl)-1H-pyrazolo[3,4-b]pyridin-3-yl]-1,2,4-triazine-5-amine] | 0.3 µM | 
COc1ccc(-c2nnc(-c3nn(Cc4ccccc4F)c4ncccc34)nc2N)cn1 [Example 4, 3-[1-(2-Fluorobenzyl)-1H-pyrazolo[3,4-b]pyridin-3-yl]-6-(6-methoxypyridin-3-yl)-1,2,4-triazine-5-amine] | 0.03 µM | 
Nc1nc(-c2nn(Cc3ccccc3F)c3ncccc23)nnc1-c1ccncc1 [Example 5, 3-[1-(2-Fluorobenzyl)-1H-pyrazolo[3,4-b]pyridin-3-yl]-6-(pyridin-4-yl)-1,2,4-triazine-5-amine] | 0.1 µM | 
Cn1cc(-c2nnc(-c3nn(Cc4ccccc4F)c4ncccc34)nc2N)cn1 [Example 6, 3-[1-(2-Fluorobenzyl)-1H-pyrazolo[3,4-b]pyridin-3-yl]-6-(1-methyl-1H-pyrazol-4-yl)-1,2,4-triazine-5-amine] | 0.1 µM | 
Nc1nc(-c2nn(Cc3ccccc3F)c3ncccc23)nnc1-c1cccnc1 [Example 7, 3-[1-(2-Fluorobenzyl)-1H-pyrazolo[3,4-b]pyridin-3-yl]-6-(pyridin-3-yl)-1,2,4-triazine-5-amine] | 0.1 µM | 
COc1ncccc1-c1nnc(-c2nn(Cc3ccccc3F)c3ncccc23)nc1N [Example 8, 3-[1-(2-Fluorobenzyl)-1H-pyrazolo[3,4-b]pyridin-3-yl]-6-(2-methoxypyridin-3-yl)-1,2,4-triazine-5-amine] | 0.1 µM | 
Cc1cc(-c2nnc(-c3nn(Cc4ccccc4F)c4ncccc34)nc2N)ccn1 [Example 9, 3-[1-(2-Fluorobenzyl)-1H-pyrazolo[3,4-b]pyridin-3-yl]-6-(2-methylpyridin-4-yl)-1,2,4-triazine-5-amine] | 0.1 µM | 
Nc1nnc(-c2nn(Cc3ccccc3F)c3ncccc23)nc1N [Example 10, 3-[1-(2-Fluorobenzyl)-1H-pyrazolo[3,4-b]pyridin-3-yl]-1,2,4-triazine-5,6-diamine] | 0.1 µM | 
CS(=O)(=O)Nc1nnc(-c2nn(Cc3ccccc3F)c3ncccc23)nc1N [Example 11, N-{5-Amino-3-[1-(2-fluorobenzyl)-1H-pyrazolo[3,4-b]pyridin-3-yl]-1,2,4-triazin-6-yl}methanesulphonamide] | 1 µM | 2960 nM
COC(=O)Nc1nnc(-c2nn(Cc3ccccc3F)c3ncccc23)nc1N [Example 12, Methyl {5-amino-3-[1-(2-fluorobenzyl)-1H-pyrazolo[3,4-b]pyridin-3-yl]-1,2,4-triazin-6-yl}carbamate] | 0.3 µM | 112 nM
Oc1nc(-c2nn(Cc3ccccc3F)c3ncccc23)nnc1C(F)(F)F [Example 13, 3-[1-(2-Fluorobenzyl)-1H-pyrazolo[3,4-b]pyridin-3-yl]-6-(trifluoromethyl)-1,2,4-triazin-5-ol] | 3 µM | 2630 nM
Nc1nc(-c2nn(Cc3ccccc3F)c3ncccc23)nnc1C(F)(F)F [Example 14, 3-[1-(2-Fluorobenzyl)-1H-pyrazolo[3,4-b]pyridin-3-yl]-6-(trifluoromethyl)-1,2,4-triazine-5-amine] | 0.03 µM | 52 nM
Oc1nc(-c2nn(Cc3ccccc3F)c3ncccc23)nnc1C1CCCC1 [Example 15, 6-Cyclopentyl-3-[1-(2-fluorobenzyl)-1H-pyrazolo[3,4-b]pyridin-3-yl]-1,2,4-triazin-5-ol] | 1 µM | 1090 nM
Nc1nc(-c2nn(Cc3ccccc3F)c3ncccc23)nnc1C1CCCC1 [Example 16, 6-Cyclopentyl-3-[1-(2-fluorobenzyl)-1H-pyrazolo[3,4-b]pyridin-3-yl]-1,2,4-triazine-5-amine] | 0.03 µM | 25 nM
CCCc1nnc(-c2nn(Cc3ccccc3F)c3ncccc23)nc1O [Example 17, 3-[1-(2-Fluorobenzyl)-1H-pyrazolo[3,4-b]pyridin-3-yl]-6-propyl-1,2,4-triazin-5-ol] | 1 µM | 
CCCc1nnc(-c2nn(Cc3ccccc3F)c3ncccc23)nc1N [Example 18, 3-[1-(2-Fluorobenzyl)-1H-pyrazolo[3,4-b]pyridin-3-yl]-6-propyl-1,2,4-triazine-5-amine] | 0.1 µM | 30 nM
CCc1nnc(-c2nn(Cc3ccccc3F)c3ncccc23)nc1O [Example 19, 6-Ethyl-3-[1-(2-fluorobenzyl)-1H-pyrazolo[3,4-b]pyridin-3-yl]-1,2,4-triazin-5-ol] | 1 µM | 
CCc1nnc(-c2nn(Cc3ccccc3F)c3ncccc23)nc1N [Example 20, 6-Ethyl-3-[1-(2-fluorobenzyl)-1H-pyrazolo[3,4-b]pyridin-3-yl]-1,2,4-triazine-5-amine] | 0.1 µM | 30 nM
CC(C)c1nnc(-c2nn(Cc3ccccc3F)c3ncccc23)nc1O [Example 21, 3-[1-(2-Fluorobenzyl)-1H-pyrazolo[3,4-b]pyridin-3-yl]-6-isopropyl-1,2,4-triazin-5-ol] | 0.3 µM | 916 nM
CC(C)c1nnc(-c2nn(Cc3ccccc3F)c3ncccc23)nc1N [Example 22, 3-[1-(2-Fluorobenzyl)-1H-pyrazolo[3,4-b]pyridin-3-yl]-6-isopropyl-1,2,4-triazine-5-amine] | 0.1 µM | 27 nM
CC(F)c1nnc(-c2nn(Cc3ccccc3F)c3ncccc23)nc1N (stereo not shown) [Example 23, 3-[1-(2-Fluorobenzyl)-1H-pyrazolo[3,4-b]pyridin-3-yl]-6-(1-fluoroethyl)-1,2,4-triazine-5-amine] | 0.1 µM | 23 nM
